Values joined by “and” are separate entries in the source; they are usually repeats but may differ in a detail not shown here. Identical values can stand only once.
Tests used:
Type in all cases: cell-based
Aspergillus niger [1] = experiment: MIC and synergy of MIT/BIT (1:1) and IPBC in Sabouraud maltose broth, 72 h
Protocol: (§1) In all the examples in which an active substance mixture of MIT and BIT as well as additionally a further active biocidal substance was used, the weight ratio of MIT to BIT was 1:1.
(§2) The synergy index is calculated according to the method of F. C. Kull et al., Applied Microbiology, Vol. 9 (1961), p. 538. Here the synergy index is calculated using the following formula:
(§3) Synergy index SI=Qa/QA+Qb/QB.
The synergy of an active substance mixture that contains 3-iodo-2-propinyl-N-butyl carbamate (IPBC) in addition to MIT and BIT, against the microorganism Aspergillus niger is shown as in Example 1.
(§4) The test batches contained a Sabouraud maltose broth as a nutrient medium. The spore concentration was 10^6 per mL. The incubation time was 72 h at 25° C. Each sample was incubated on an incubation shaker at 120 rpm.

Penicillium funiculosum [2] = experiment: as above
Protocol: as §1, §2, §3
The synergy of an active substance mixture that contains IPBC in addition to MIT and BIT, against the microorganism Penicillium funiculosum is shown as in Example 1.
as §4

Pseudomonas putida = experiment: MIC and synergy of MIT and BIT in Müller-Hinton broth, 48 h; as to growth of the microorganism: key: growth of the microorganism took place (symbol '+'); or not (symbol '−')
Protocol: as §2, §3
The synergy of the two active substances MIT and BIT against the microorganism Pseudomonas putida is shown as in Example 1.
(§5) The test batches again contained a Müller-Hinton broth as a nutrient medium. The cell density was 10^6 cells/mL. The incubation time was 48 h at 25° C. Each sample was incubated on an incubation shaker at 120 rpm.

Escherichia coli = experiment: MIC and synergy of MIT and BIT in Müller-Hinton broth, 72 h; conditions: for growth of the microorganism: BIT 0 ppm, MIT ppm = row head c0; as to growth of the microorganism: key: growth of the microorganism took place (symbol '+'); or not (symbol '−')
Protocol: For this purpose, aqueous mixtures were produced with various concentrations of 2-methylisothiazolin-3-one (MIT) and 1,2-benzisothiazolin-3-one (BIT) and the activity of these mixtures on Escherichia coli (International Mycological Institute, Strain No. IMI 362054) was tested.
In addition to the biocide component and water, the aqueous mixtures contained a nutrient medium, namely a Müller-Hinton broth (commercial product “Merck No. 10393”). The cell density of Escherichia coli was 10^6 cells/mL. The incubation time was 72 h at 25° C. Each sample was incubated on an incubation shaker at 120 rpm.
as §2, §3
When the synergy index has the value 1, this means that there is an addition of the activity of the two biocides. When the synergy index has a value of less than 1, this means that a synergy of the two biocides exists.

Klebsiella pneumoniae = experiment: as above; conditions: for growth of the microorganism: BIT 0 ppm, MIT ppm = row head c0
Protocol: as §2, §3
The synergy of the two active substances MIT and BIT against the microorganism Klebsiella pneumoniae is shown as in example 1.
(§6) The test batches again contained a Müller-Hinton broth as a nutrient medium. The cell density was 10^6 cells/mL. The incubation time was 72 h at 25° C. Each sample was incubated on an incubation shaker at 120 rpm.

[3] = test system: standard bacterial inoculum; experiment: Preservation of coating composition B, repeated bacterial inoculation, streak evaluation; parameters: key to Bacterial growth (7 days + 48 h after 4th inoculation): 0: no growth; minimal growth up to 10 colonies; 2: slight growth up to 100 colonies; moderate growth up to 300 colonies; 4: uniform growth, single colonies still discernible; 5: strong growth, too many colonies to count, but not covering entire surface; 6: extensive growth, almost no individual colonies, total streak surface overgrown
Protocol: (§7) The biocides shown in Table XI below were added respectively to 50 g of coating composition A. The stated amounts of biocide refer to the amount of coating composition A. In the MIT/BIT mixtures, the two biocides were present in a weight ratio of 1:1.
(§8) Apart from a blank test without addition of biocide, 1 mL of a standard bacterial inoculum that contained the following bacterial strains was added to each sample of coating composition A:
(§9) The cell density of the inoculum was 10^10 to 3·10^10 cells/mL, and the cell density of the samples was 2·10^8 to 6·10^8 cells/g. The samples were held at 30° C. for 7 days. Then a streak of each sample was produced on a nutrient agar plate, held at 30° C. for 48 h, and then evaluated for bacterial growth. The following evaluation scale was used:
(§10) When the bacterial growth was evaluated as below 6, a second bacterial inoculum of the above-mentioned type was added to the corresponding original 50 g sample and it was again held at 30° C. for 7 days. Then a streak was again produced on a nutrient agar plate, which was again evaluated for its bacterial growth after a holding time of 48 h at 30° C.
(§11) When the bacterial growth of the streak was evaluated as 6 for a sample, the testing of this sample was terminated. As long as a sample had not reached this number, a bacterial inoculum was again added in the above-mentioned manner and the sample was held and tested by means of a streak. This procedure was repeated as necessary, with a maximum of 4 bacterial inocula being added per sample.
Example 9 was repeated, but using coating composition B instead of coating composition A.
Coating composition B is a particularly low-emission plaster based on a polymer dispersion commercially available under the designation “Granol KR 3.0 LF” (company Steinwerke Kupferdreh GmbH).

Pseudomonas stutzeri = experiment: MIC and synergy of MIT and BIT in Müller-Hinton broth, 72 h; conditions: for growth of the microorganism: BIT 0 ppm, MIT ppm = row head c0; as to growth of the microorganism: key: growth of the microorganism took place (symbol '+'); or not (symbol '−')
Protocol: as §2, §3
The synergy of MIT and BIT against the microorganism Pseudomonas stutzeri is shown as in Example 1.
as §6

Pseudomonas aeruginosa = experiment: MIC and synergy of MIT and BIT in Müller-Hinton broth, 48 h
Protocol: as §2, §3
The synergy of the two active substances MIT and BIT against the microorganism Pseudomonas aeruginosa is shown as in Example 1.
as §5

Penicillium funiculosum [4] = experiment: MIC and synergy of MIT and BIT in Sabouraud maltose broth, 96 h
Protocol: as §2, §3
The synergy of the two active substances MIT and BIT against the microorganism Penicillium funiculosum is shown as in Example 1.
(§12) The test batches contained a Sabouraud maltose broth as a nutrient medium. The spore concentration was 10^6 per mL. The incubation time was 96 h at 25° C. Each sample was incubated on an incubation shaker at 120 rpm.

[5] = test system: standard bacterial inoculum; experiment: Preservation of coating composition A, repeated bacterial inoculation, streak evaluation; parameters: key: 0: no growth; minimal growth up to 10 colonies; 2: slight growth up to 100 colonies; moderate growth up to 300 colonies; 4: uniform growth, single colonies still discernible; 5: strong growth, too many colonies to count, but not covering entire surface; 6: extensive growth, almost no individual colonies, total streak surface overgrown
From the text: Biocide compositions according to the invention were incorporated into a coating composition A that is used for coating building facades. This coating composition is a plaster based on an aqueous polymer dispersion commercially available under the designation “Granol KR 3.0” (company Steinwerke Kupferdreh GmbH). The addition of the biocide composition of the invention served to preserve the coating composition before its use, i.e., while it was stored in its packing drums.
as §7, §8, §9, §10, §11

Aspergillus niger [6] = experiment: MIC and synergy of MIT and BIT in Sabouraud maltose broth, 96 h
Protocol: as §2, §3
The synergy of the two active substances MIT and BIT against the microorganism Aspergillus niger is shown as in Example 1.
as §12

[7] = MIT share of the BIT/MIT mixture at MIC, 48 h
[8] = MIT share of the BIT/MIT mixture at MIC, 72 h
[9] = share of the BIT/MIT mixture at MIC, 96 h
For growth of the microorganism in this document: key: growth of the microorganism took place (symbol '+'); or not (symbol '−').

## CCCCNC(=O)OCC#CI [IPBC, 3-iodo-2-propinyl-N-butyl carbamate]
Aspergillus niger [1]; Aspergillus niger, 72 h
  Qb/QB: 1.00
  Synergy index Qa/QA + Qb/QB: 1.00
Aspergillus niger [1]; IPBC share at the MIC, Aspergillus niger, 72 h
  MIC at IPBC concentration Qb: 2.5 ppm
Aspergillus niger [1]; at the MIC, Aspergillus niger, 72 h
  Total concentration BIT/MIT + IPBC Qa + Qb: 2.5 ppm
Aspergillus niger [1]; used alone, 72 h at 25° C.
  MIC value: 2.5 ppm
Penicillium funiculosum [2]; IPBC share at the MIC, Penicillium funiculosum, 72 h
  MIC at IPBC concentration Qb: 0.75 ppm
Penicillium funiculosum [2]; Penicillium funiculosum, 72 h
  Qb/QB: 1.00
  Synergy index Qa/QA + Qb/QB: 1.00
Penicillium funiculosum [2]; at the MIC, Penicillium funiculosum, 72 h
  Total concentration MIT/BIT + IPBC: 0.75 ppm
Penicillium funiculosum [2]; used alone, 72 h at 25° C.
  MIC value: 0.75 ppm

## Cn1sccc1=O [MIT, 2-methylisothiazolin-3-one]
Pseudomonas putida; 48 h
  MIC at Total concentration BIT + MIT Qa + Qb: 12.5 ppm
  Qb/QB: 1.00
  Synergy index Qa/QA + Qb/QB: 1.00
Pseudomonas putida; BIT 0 ppm, MIT ppm = row head c0, 48 h
  growth of the microorganism: + and −
Pseudomonas putida; [7]
  MIC at MIT concentration Qb: 12.5 ppm
Pseudomonas putida; used alone, 48 h at 25° C.
  MIC value: 12.5 ppm
Escherichia coli; 72 h
  MIC at Total concentration BIT + MIT Qa + Qb: 17.5 ppm
  Qb/QB: 1.00
Escherichia coli; 72 h, method of Kull
  Synergy index Qa/QA + Qb/QB: 1.00
Escherichia coli; 72 h, MIT 10 ppm
  growth of the microorganism: +
Escherichia coli; 72 h, MIT 25 ppm
  growth of the microorganism: −
Escherichia coli; [8]
  MIC at MIT concentration Qb: 17.5 ppm
Escherichia coli; used alone, 72 h at 25° C.
  MIC value: 17.5 ppm
Klebsiella pneumoniae; 72 h
  MIC at Total concentration BIT + MIT Qa + Qb: 20 ppm
  Qb/QB: 1.00
  Synergy index Qa/QA + Qb/QB: 1.00
Klebsiella pneumoniae; 72 h, MIT 12.5 ppm
  growth of the microorganism: +
Klebsiella pneumoniae; 72 h, MIT 25 ppm
  growth of the microorganism: −
Klebsiella pneumoniae; [8]
  MIC at MIT concentration Qb: 20 ppm
Klebsiella pneumoniae; used alone, 72 h at 25° C.
  MIC value: 20 ppm
[3]; biocide 0.005% by wt
  Bacterial growth (7 days + 48 h after 4th inoculation): 4
[3]; biocide 0.01% by wt
  Bacterial growth (7 days + 48 h after 4th inoculation): 1 (minimal growth up to 10 colonies)
[3]; biocide 0.015% by wt
  Bacterial growth (7 days + 48 h after 4th inoculation): 1 (minimal growth up to 10 colonies)
[3]; biocide 0.02% by wt
  Bacterial growth (7 days + 48 h after 4th inoculation): prevented completely and 0
[3]; biocide 0.03% by wt
  Bacterial growth (7 days + 48 h after 4th inoculation): prevented completely and 0
Pseudomonas stutzeri; 72 h
  MIC at Total concentration BIT + MIT Qa + Qb: 12.5 ppm
  Qb/QB: 1.00
  Synergy index Qa/QA + Qb/QB: 1.00
Pseudomonas stutzeri; 72 h, MIT 10 ppm
  growth of the microorganism: +
Pseudomonas stutzeri; 72 h, MIT 15 ppm
  growth of the microorganism: −
Pseudomonas stutzeri; [8]
  MIC at MIT concentration Qb: 12.5 ppm
Pseudomonas stutzeri; used alone, 72 h at 25° C.
  MIC value: 12.5 ppm
Pseudomonas aeruginosa; 48 h
  MIC at Total concentration BIT + MIT Qa + Qb: 30 ppm
  Qb/QB: 1.00
  Synergy index Qa/QA + Qb/QB: 1.00
Pseudomonas aeruginosa; [7]
  MIC at MIT concentration Qb: 30 ppm
Pseudomonas aeruginosa; used alone, 48 h at 25° C.
  MIC value: 30 ppm
Penicillium funiculosum [4]; 96 h
  MIC at Total concentration BIT + MIT Qa + Qb: 40 ppm
  Qb/QB: 1.00
  Synergy index Qa/QA + Qb/QB: 1.00
Penicillium funiculosum [4]; [9]
  MIC at MIT concentration Qb: 40 ppm
Penicillium funiculosum [4]; used alone, 96 h at 25° C.
  MIC value: 200 ppm
[5]; biocide 0.005% by wt
  Bacterial growth (7 days + 48 h after 4th inoculation): full bacterial growth was reached only after four inoculations and 6
[5]; biocide 0.01% by wt
  Bacterial growth (7 days + 48 h after 4th inoculation): 5
[5]; biocide 0.015% by wt
  Bacterial growth (7 days + 48 h after 4th inoculation): 5
[5]; biocide 0.02% by wt
  Bacterial growth (7 days + 48 h after 4th inoculation): 4
[5]; biocide 0.03% by wt
  Bacterial growth (7 days + 48 h after 4th inoculation): no bacterial growth found even after four inoculations and 0
Aspergillus niger [6]; 96 h
  MIC at Total concentration BIT + MIT Qa + Qb: 100 ppm
  Qb/QB: 1.00
  Synergy index Qa/QA + Qb/QB: 1.00
Aspergillus niger [6]; [9]
  MIC at MIT concentration Qb: 100 ppm
Aspergillus niger [6]; used alone, 96 h at 25° C.
  MIC value: 750 ppm

From US6361788B1, “Synergistic biocide composition” (Thor Chemie GmbH, priority 1997, dated 2002)
